The structures appear in SMILES notation.

For this assay, the target named is T1, GST-RIPK1 (recombinant GST-RIPK1 kinase domain (residues 1-327)) (Homo sapiens, UniProt Q13546).
T1 construct: recombinant GST-RIPK1 kinase domain (residues 1-327) enzyme produced from baculovirus-transfected Sf21 cells; host or cells: baculovirus-transfected Sf21 insect cells
T1 sequence (Q13546 1-327): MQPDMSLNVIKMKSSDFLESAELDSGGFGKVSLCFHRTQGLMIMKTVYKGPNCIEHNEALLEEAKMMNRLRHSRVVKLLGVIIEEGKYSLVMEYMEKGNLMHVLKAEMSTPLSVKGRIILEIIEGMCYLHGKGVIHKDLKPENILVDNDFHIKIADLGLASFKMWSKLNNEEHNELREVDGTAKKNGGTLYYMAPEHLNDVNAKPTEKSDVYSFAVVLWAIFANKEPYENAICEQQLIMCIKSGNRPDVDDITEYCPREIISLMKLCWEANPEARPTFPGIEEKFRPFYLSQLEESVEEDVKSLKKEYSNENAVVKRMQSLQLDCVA
Kind of assay: RIPK1-ADP-Glo Enzymatic Assay. It is filed as biochemical. The following applies: ten-point titration, top compound concentration of 100000 nM; 25 nM GST-RIPK1, 300 μM ATP, 3 μM dephosphorylated-MBP; 30 min pre-incubation, 150 min reaction. The gist of the method: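 GST-RIPK1 kinase domain (residues 1-327, Sf21-expressed), 25 nM, preincubated 30 min with compound, then reacted 150 min with 300 μM ATP and 3 μM dephosphorylated MBP in pH 7.3 Hepes buffer, 1% DMSO. ADP measured by ADP-Glo luminescence; EC50 from ten-point titration (top 100000 nM), four-parameter fit.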
A general note: ADP-Glo first removes unused ATP, then detects ADP through luciferase.

As a reminder, the EC50 is the concentration that produces a half-maximal response. For the compound `Cn1cc(COC2CC3(C2)OC2CC[C@@H](c4cnccn4)N2C3=O)cn1` (stereo partly drawn) [Example 18.5, (5′S)-3-[(1-methyl-1H-pyrazol-4-yl)methoxy]-5′-(pyrazin-2-yl)tetrahydro-3′H-spiro[cyclobutane-1,2′-pyrrolo[2,1-b][1,3]oxazol]-3′-one], the EC50 stood at 307 nM. As for `COc1ccc(C#N)nc1COC1CC2(C1)OC1CC[C@@H](c3cnccn3)N1C2=O` (stereo partly drawn) [Example 18.75, 5-methoxy-6-({[(5′S)-3′-oxo-5′-(pyrazin-2-yl)tetrahydro-3′H-spiro[cyclobutane-1,2′-pyrrolo[2,1-b][1,3]oxazol]-3-yl]oxy}methyl)pyridine-2-carbonitrile], the EC50 worked out at 896 nM. As to `O=C1N2C(CC[C@H]2c2cnccn2)OC12CC(OCc1ccccc1-n1cccn1)C2` (stereo partly drawn) [Example 18.102, (5′S)-5′-(pyrazin-2-yl)-3-{[2-(1H-pyrazol-1-yl)phenyl]methoxy}tetrahydro-3′H-spiro[cyclobutane-1,2′-pyrrolo[2,1-b][1,3]oxazol]-3′-one], the EC50 is 736 nM. For the compound `COc1ccc(COC2CC3(C2)OC2CC[C@@H](c4cnccn4)N2C3=O)cc1CC#N` (stereo partly drawn) [Example 18.38, [2-methoxy-5-({[(5′S)-3′-oxo-5′-(pyrazin-2-yl)tetrahydro-3′H-spiro[cyclobutane-1,2′-pyrrolo[2,1-b][1,3]oxazol]-3-yl]oxy}methyl)phenyl]acetonitrile], the EC50 amounted to 12 nM. As to `O=C1N2C(CC[C@H]2c2cnccn2)OC12CC(OCc1cncc(OCCF)c1)C2` (stereo partly drawn) [Example 18.27, (5′S)-3-{[5-(2-fluoroethoxy)pyridin-3-yl]methoxy}-5′-(pyrazin-2-yl)tetrahydro-3′H-spiro[cyclobutane-1,2′-pyrrolo[2,1-b][1,3]oxazol]-3′-one], the EC50 was 126 nM. The value for `N#Cc1cncc(O[C@H]2C[C@@]3(C2)O[C@@H]2CC[C@@H](c4ccc(F)cc4)N2C3=O)c1` [Example 9.49, 5-{[(1r,3R,5′S,7a′R)-5′-(4-fluorophenyl)-3′-oxotetrahydro-3′H-spiro[cyclobutane-1,2′-pyrrolo[2,1-b][1,3]oxazol]-3-yl]oxy}pyridine-3-carbonitrile] was 15 nM; that for `COc1ccc(COC2CC3(C2)OC2CC[C@@H](c4cnccn4)N2C3=O)cn1` (stereo partly drawn) [Example 18.70, (5′S)-3-[(6-methoxypyridin-3-yl)methoxy]-5′-(pyrazin-2-yl)tetrahydro-3′H-spiro[cyclobutane-1,2′-pyrrolo[2,1-b][1,3]oxazol]-3′-one] was 150 nM; that for `O=C1N2C(CC[C@H]2c2cnccn2)OC12CC(OCc1ccc3c(c1)CCO3)C2` (stereo partly drawn) [Example 18.92, (5′S)-3-[(2,3-dihydro-1-benzofuran-5-yl)methoxy]-5′-(pyrazin-2-yl)tetrahydro-3′H-spiro[cyclobutane-1,2′-pyrrolo[2,1-b][1,3]oxazol]-3′-one] was 243 nM. The value for `O=C1N2[C@@H](CC[C@H]2c2ccc(F)cc2)OC12CC(Oc1nccn3ccnc13)C2` (stereo partly drawn) [Example 9.58, (5′S,7a′R)-5′-(4-fluorophenyl)-3-[(imidazo[1,2-a]pyrazin-8-yl)oxy]tetrahydro-3′H-spiro[cyclobutane-1,2′-pyrrolo[2,1-b][1,3]oxazol]-3′-one] was 467 nM. On to `O=C1N2C(CC[C@H]2c2cnccn2)OC12CC(OCc1cccc(N3CCCC3)n1)C2` (stereo partly drawn) [Example 18.96, (5′S)-5′-(pyrazin-2-yl)-3-{[6-(pyrrolidin-1-yl)pyridin-2-yl]methoxy}tetrahydro-3′H-spiro[cyclobutane-1,2′-pyrrolo[2,1-b][1,3]oxazol]-3′-one], for which the half-maximal effective concentration (EC50) was determined as 225 nM. The value for `N#Cc1ccc(OC2CCC2)cc1COC1CC2(C1)OC1CC[C@@H](c3cnccn3)N1C2=O` (stereo partly drawn) [Example 18.88, 4-(cyclobutyloxy)-2-({[(5′S)-3′-oxo-5′-(pyrazin-2-yl)tetrahydro-3′H-spiro[cyclobutane-1,2′-pyrrolo[2,1-b][1,3]oxazol]-3-yl]oxy}methyl)benzonitrile] was 169 nM; that for `O=C1N2[C@@H](CC[C@H]2c2ccc(F)cc2)OC12CC(OCc1ccncc1)C2` (stereo partly drawn) [Example 9.61, (5′S,7a′R)-5′-(4-fluorophenyl)-3-[(pyridin-4-yl)methoxy]tetrahydro-3′H-spiro[cyclobutane-1,2′-pyrrolo[2,1-b][1,3]oxazol]-3′-one] was 104 nM. The value for `O=C1N2[C@@H](CC[C@H]2c2cc(F)cc(F)c2)O[C@]12C[C@H](Oc1ncnc3occc13)C2` [Example 9.31, (1r,3R,5′S,7a′R)-5′-(3,5-difluorophenyl)-3-[(furo[2,3-d]pyrimidin-4-yl)oxy]tetrahydro-3′H-spiro[cyclobutane-1,2′-pyrrolo[2,1-b][1,3]oxazol]-3′-one] was 9 nM; that for `Cc1cnn(-c2cnc(COC3CC4(C3)OC3CC[C@@H](c5cnccn5)N3C4=O)cn2)c1` (stereo partly drawn) [Example 18.15, (5′S)-3-{[5-(4-methyl-1H-pyrazol-1-yl)pyrazin-2-yl]methoxy}-5′-(pyrazin-2-yl)tetrahydro-3′H-spiro[cyclobutane-1,2′-pyrrolo[2,1-b][1,3]oxazol]-3′-one] was 76 nM. As for `O=C1N2C(CC[C@H]2c2cnccn2)OC12CC(OCc1ccc3nccn3c1)C2` (stereo partly drawn) [Example 18.19, (5′S)-3-[(imidazo[1,2-a]pyridin-6-yl)methoxy]-5′-(pyrazin-2-yl)tetrahydro-3′H-spiro[cyclobutane-1,2′-pyrrolo[2,1-b][1,3]oxazol]-3′-one], the figure is 110 nM; as for `O=C1N2[C@@H](CC[C@H]2c2cnccn2)O[C@]12C[C@@H](Oc1ccc(F)cc1F)C2` [Example 7.2, (1s,3S,5′S,7a′R)-3-(2,4-difluorophenoxy)-5′-(pyrazin-2-yl)tetrahydro-3′H-spiro[cyclobutane-1,2′-pyrrolo[2,1-b]oxazol]-3′-one], 18 nM. For the compound `N#Cc1ccnc(O[C@H]2C[C@@]3(C2)O[C@@H]2CC[C@@H](c4ccccc4)N2C3=O)n1` [Example 9.19, 2-{[(1r,3R,5′S,7a′R)-3′-oxo-5′-phenyltetrahydro-3′H-spiro[cyclobutane-1,2′-pyrrolo[2,1-b][1,3]oxazol]-3-yl]oxy}pyrimidine-4-carbonitrile], the EC50 worked out at 64 nM. In the case of `Cn1ccc([C@@H]2CC[C@H]3OC4(CC(Oc5cncc(Cl)c5)C4)C(=O)N32)n1` (stereo partly drawn) [Example 19.9, (5′S,7a′R)-3-[(5-chloropyridin-3-yl)oxy]-5′-(1-methyl-1H-pyrazol-3-yl)tetrahydro-3′H-spiro[cyclobutane-1,2′-pyrrolo[2,1-b][1,3]oxazol]-3′-one], the EC50 was determined as 397 nM. The value for `N#Cc1ccncc1COC1CC2(C1)OC1CC[C@@H](c3cnccn3)N1C2=O` (stereo partly drawn) [Example 18.93, 3-({[(5′S)-3′-oxo-5′-(pyrazin-2-yl)tetrahydro-3′H-spiro[cyclobutane-1,2′-pyrrolo[2,1-b][1,3]oxazol]-3-yl]oxy}methyl)pyridine-4-carbonitrile] was 329 nM; that for `Cc1ncccc1COC1CC2(C1)O[C@@H]1CC[C@@H](c3cnccn3)N1C2=O` (stereo partly drawn) [Example 20.5, (5′S,7a′R)-3-[(2-methylpyridin-3-yl)methoxy]-5′-(pyrazin-2-yl)tetrahydro-3′H-spiro[cyclobutane-1,2′-pyrrolo[2,1-b][1,3]oxazol]-3′-one] was 74 nM.

(Values after patent US20250154173A1 (Merck Sharp & Dohme LLC, priority 2023, published 2025).)
